Measured values reported in patent US11629192B2, “Methods and pharmaceutical compositions for the treatment of diseases mediated by the NRP-1/OBR complex signaling pathway” (INSERM (Institut National de la Sante et de la Recherche …, priority 2014, dated 2023).

Columns and labels:
NRP-1/OBR complex = NRP-1/OBR complex detection by Duolink Proximity Ligation Assay in MDA-MB-231 cells; assay type: cell-based, human; conditions: Leptin stimulation compared to serum starved and unstimulated cells
Description: FIG. 2A-E. NRP-1/OBR complex is dependent of the activity of Protein-kinase CK2: NRP-1 and OBR are both a substrate of the holoenzyme CK2: In vitro phosphorylation of the recombinant full length NRP-1 (A) and the length OBR (B) indicate that the CK2β subunit is indispensable for the CK2 activity. C. Detection of the NRP-1 and CK2β subunit interaction: By using the PLA technology, the in vitro data showing the implication of CK2β subunit in the phosphorylation of NRP-1 by CK2 are in part confirmed in MDA-MB231 cells by the detection of CK2β interaction with NRP-1 as indicated by the duolink (white dot). […] E. inhibition of the NRP-1/OBR by the simultaneous CK2α and CK2α′ expression silencing using siRNA that confirms the CK2 implication In the NRP-1/OBR complex formation and nuclear localization.
To confirm a direct association of NRP-1 and Leptin in breast cancer cell migration, we investigated the NRP-1 and OBR interaction by using proximity ligation assay technology (Duolink) in MDA-MB-231 and in T47D-NRP-1. Since OBR is a member of the class I cytokine receptor family, we asked the question if the formation of the complex NRP-1/OBR can or not be modulated by Leptin. This question was investigated endogenously in MDA-MB-231 or by transient transfection of T47D either by NRP-1 or by NRP-1/OBR or OBR alone. After 24 h of transfection, cells were serum starved for 16 h then stimulated with Leptin (10 nM). After 3 h, the stimulation was stopped by removing the medium, cells was first washed then fixed and NRP-1/OBR complex formation was analyzed by Duolink in situ Proximity Ligation Assay (PLA) and by confocal microscopy detection. Co-localization was analyzed using JACoP (ImageJ; National Institutes of Health, Bethesda, Md.) software. Co-localization between molecules was indicated by a positive Pearson coefficient (r). First, the expression of NRP-1 in transfected T47D was confirmed by RT-PCR. NRP-1 forms a complex with endogenous OBR as it is shown by the Duolink detection as red dot in cells transfected with pcDNA3-NRP-1. The Duolink signal increased in the T47D co-transfected with NRP-1 and OBR. The Duolink signals in T47D transfected with either the empty vector pcDNA3 or with the OBR expressing vector were similar. The same results are observed in MDA-MB-231. […] By using subcellular protein fractionation kit, NRP-1 and OBR localization in cytoplasmic (C), membrane (M), in the total nuclear extract (N) or in soluble nuclear (SN) and chromatin bound fractions (CB) was analyzed by western blotting either in total lysate or after coimmunoprecipitation. The purity of fraction was assessed by the detection of specific proteins of each fraction such as Hsp90 for the C fraction, SP1 and HDAC2 for the SN and CB fractions and specifically the Calreticulin for endoplasmic reticulum (ER) in order to detect any contamination by the ER membrane fraction in the nuclear fractions. As suspected, OBR was coimmunoprecipitated with NRP-1 in the cytoplasmic (C) and in the nuclear fraction (N) of MDA-MB-231 but not in T47D. As well as Phosphorylated OBR (P-OBR), NRP-1 was detected in cytoplasmic fraction and in nuclear fractions SN and CB of 16 h serum starved MDA-MB-231 and stimulated with 10 nM of Leptin during 3 h at 37° C. The P-OBR and NRP-1 coimmunoprecipitated in the nuclear fractions, increasing with Leptin stimulation as observed by confocal microscopy.
As attempted, NRP-1/OBR complex was detected by confocal microscopy after by Duolink in situ Proximity Ligation Assay (PLA) in MDA-MB-231 stimulated with Leptin (10 nM). This detection was also observed in MDA-MB-231-shGFP but very less in MDA-MB-231-shNRP-1 confirming NRP-1 association with OBR.

[1] = test system: T47D-NRP-1-RFP xenografts; assay: Transcriptome of T47D-NRP-1-RFP xenografts treated or not with Leptin; assay type: in vivo, Nude mice; conditions: Leptin treated vs not treated T47D-NRP-1-RFP xenografts
Description: Although the Chip-Seq was realized on MDA-MB-231, we opted to realize a transcriptome of T47D overexpressing NRP-1-RFP xenografts compared to T47D-wt and T47D-RFP treated or not with Leptin regarding to the lymph node infiltration induced by the NRP-1 overexpression and its increase by Leptin treatment. To determine any direct association of NRP-1 in gene expression, we realize first a global analysis of transcriptome of T47D-NRP-1 xenografts treated and not treated with Leptin (n=8) compared to T47D-wt and T47D-RFP xenografts treated and not treated with Leptin (n=8). […] The analysis of gene expression in Leptin treated T47D-NRP-1-RFP compared to no treated xenografts, highlighted 66 genes with 31 genes enriched in the Chip-Seq of MDA-MB-231 and that were not detected in T47D-wt and T47D-RFP treated or not with Leptin. Only 4 genes enriched in the Chip-Seq contained peaks associated to transcription factor binding site such as FUS (fused in sarcoma, fold increase 1.79; p=0.045) for Pol2 and C12orf45 (chromosome 12 open reading frame, fold increase 1.29; p=0.03) for CTCF. […] Since Plasminogen Activator Inhibitor 1 (PAI.1) related to SERPINE1 gene has been associated to breast cancer invasion and metastasis, we evaluated PAI.1 expression by immunostaining in T47D-NRP-1-RFP xenografts compared to T47D-wt and T47D-RFP.

Question: For “Leptin: small non glycosylated protein, ligand of OBR”, which “direct interaction between NRP-1 and OBR (Duolink PLA)” value (NRP-1/OBR complex) is on record?
Answer: takes place under Leptin stimulation

Question: And the “C12orf45 gene expression, fold increase” value ([1]; p=0.03)?
Answer: 1.29 fold

Question: And the “FUS gene expression, fold increase” value ([1]; p=0.045)?
Answer: 1.79 fold
